Data reported in US8809010B2, “Method for prophylactic treatment of alzheimer's disease using inhibitors of glutaminyl cyclase and glutamate cyclases” (Probiodrug AG, priority 2003, dated 2014).
Ends that are not written are not given here.

Key:
[1] = test system: QC in porcine pituitary homogenate; experiment: Formation of [pGlu3]Aβ3-11a in porcine pituitary homogenate, MALDI-TOF; assay type: biochemical; conditions: for formation of [pGlu^3]Aβ3-11a from [Gln^3]Aβ1-11a, consecutive catalysis by DP IV and QC: pituitary homogenate with added DPIV from porcine kidney
Protocol: (§1) Matrix-assisted laser desorption/ionization mass spectrometry was carried out using the Hewlett-Packard G2025 LD-TOF System with a linear time of flight analyzer. […] Samples (5 μl) were mixed with equal volumes of the matrix solution. For matrix solution we used DHAP/DAHC, prepared by solving 30 mg 2′,6′-dihydroxyacetophenone (Aldrich) and 44 mg diammonium hydrogen citrate (Fluka) in 1 ml acetonitrile/0.1% TFA in water (1/1, v/v). A small volume (≈1 μl) of the matrix-analyte-mixture was transferred to a probe tip and immediately evaporated in a vacuum chamber (Hewlett-Packard G2024A sample prep accessory) to ensure rapid and homogeneous sample crystallization.

[2] = molecular target: T1, human QC (Homo sapiens, UniProt Q16769); experiment: Enzyme inactivation/reactivation procedures; assay type: biochemical; conditions: for inactivation of human QC: extensive dialysis against 5 mM chelator
T1 construct: The cDNA of the mature QC starting with codon 38 was fused in frame with the plasmid encoded 6× histidine tag; 6xHis; made in house; host or cells: Pichia pastoris X33 (pPICZαB, secreted); also E. coli M15 (pQE-31)
T1 sequence (Q16769 29-361): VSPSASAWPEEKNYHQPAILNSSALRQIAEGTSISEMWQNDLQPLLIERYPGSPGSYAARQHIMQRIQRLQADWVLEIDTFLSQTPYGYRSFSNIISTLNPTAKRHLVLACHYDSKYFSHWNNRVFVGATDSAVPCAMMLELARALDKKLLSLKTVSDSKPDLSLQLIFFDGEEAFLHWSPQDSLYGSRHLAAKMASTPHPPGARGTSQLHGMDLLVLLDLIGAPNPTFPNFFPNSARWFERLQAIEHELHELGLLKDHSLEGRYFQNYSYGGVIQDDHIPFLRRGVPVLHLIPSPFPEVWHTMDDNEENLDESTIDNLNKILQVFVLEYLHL

[3] = molecular target: mammalian QC (Bos taurus, UniProt Q28120); conditions: cited from earlier work
mammalian QC, sequence (Q28120 29-361): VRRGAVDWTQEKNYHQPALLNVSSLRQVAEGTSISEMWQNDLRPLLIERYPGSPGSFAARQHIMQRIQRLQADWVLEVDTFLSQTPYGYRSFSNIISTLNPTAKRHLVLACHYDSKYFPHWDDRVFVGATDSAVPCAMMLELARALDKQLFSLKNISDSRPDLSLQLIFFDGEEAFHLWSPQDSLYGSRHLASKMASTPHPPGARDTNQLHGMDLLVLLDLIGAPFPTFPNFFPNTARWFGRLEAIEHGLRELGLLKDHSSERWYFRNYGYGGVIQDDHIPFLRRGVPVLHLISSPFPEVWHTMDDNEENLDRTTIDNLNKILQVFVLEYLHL

[4] = molecular target: T1, human QC; conditions: cited from earlier work
[5] = physchem; conditions: pKa of the substrate amino group, determined by titration
Protocol: The ionic strength was adjusted to 0.05 M by addition of NaCl. The rate profiles were evaluated by fitting to a model that is based on dissociating groups.
For both determinations, a three-component buffer system was applied consisting of 0.05 M acetic acid, 0.05 M pyrophosphoric acid and 0.05 M Tricine. All buffers were adjusted to equal conductivity by addition of NaCl, in order to avoid differences in ionic strength. […] All determinations were carried out at 30° C.

[6] = Nonenzymatic pGlu-formation at pH 6.0 followed for 4 weeks; conditions: pH 6.0, 4 weeks
[7] = molecular target: T1, human QC; experiment: Qualitative substrate conversion (MALDI-TOF / fluorometric); assay type: biochemical
Protocol: as §1
In order to further investigate the specificity and selectivity of the QCs, peptides were synthesized comprising either a modified N-terminal glutaminyl residue or a modified amino acid in the second position. […] Due to the cyclization of the glutaminyl residue or its analog, respectively, a mass difference of the substrate and the product of catalysis is detected. In cases of ammonia liberation of one mole per mole of substrate, the conversion was also analyzed quantitatively using the spectrophotometric assay.

[8] = molecular target: T2, DP IV (porcine kidney) (Sus scrofa, UniProt P22411); experiment: DP IV cleavage of [Gln3]Aβ1-11a, MALDI-TOF; assay type: biochemical
T2 construct: Measurements were carried out using purified DP IV (porcine kidney); from tissue; host or cells: porcine kidney
T2 sequence (P22411 whole entry): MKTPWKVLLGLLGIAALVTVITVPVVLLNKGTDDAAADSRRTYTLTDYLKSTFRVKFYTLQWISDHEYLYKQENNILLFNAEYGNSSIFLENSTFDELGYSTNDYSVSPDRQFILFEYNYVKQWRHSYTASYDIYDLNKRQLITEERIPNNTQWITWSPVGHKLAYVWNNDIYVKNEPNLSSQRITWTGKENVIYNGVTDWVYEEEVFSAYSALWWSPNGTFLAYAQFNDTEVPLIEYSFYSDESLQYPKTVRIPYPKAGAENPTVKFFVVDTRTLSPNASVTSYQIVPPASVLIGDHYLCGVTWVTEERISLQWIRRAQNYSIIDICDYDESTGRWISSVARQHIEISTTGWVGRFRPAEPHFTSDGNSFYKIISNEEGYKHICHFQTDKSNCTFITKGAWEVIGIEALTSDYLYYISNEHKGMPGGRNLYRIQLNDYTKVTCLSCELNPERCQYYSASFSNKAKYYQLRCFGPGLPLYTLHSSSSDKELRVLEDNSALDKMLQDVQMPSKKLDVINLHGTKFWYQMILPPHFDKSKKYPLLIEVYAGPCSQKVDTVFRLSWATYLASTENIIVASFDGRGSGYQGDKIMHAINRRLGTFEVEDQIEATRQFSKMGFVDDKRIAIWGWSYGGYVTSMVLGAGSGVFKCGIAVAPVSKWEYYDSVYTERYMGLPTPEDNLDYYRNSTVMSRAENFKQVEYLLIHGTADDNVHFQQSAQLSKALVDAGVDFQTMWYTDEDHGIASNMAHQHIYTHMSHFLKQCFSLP
Protocol: as §1

[9] = Aβ aggregation assay with flow cytometry; assay type: physicochemical; conditions: 10 μM peptide, up to 24 h
Protocol: At different times, samples were removed, diluted to 10 nM (based on the initial concentration of the monomer), and analyzed by flow cytometry.
Seedless Aβ peptides were diluted to 10 μM (final total peptide concentration) into 50 mM sodium acetate, pH 5.5 containing 2 mM DTT and 100 mM NaCl and incubated at 37° C. without shaking. For fibril formation analysis, the peptides were either used as a mixture of unlabeled peptide (80%) and the respective fluorescence labeled peptide (20%) or as unlabeled peptides alone. […] In order to characterize the progress of the reaction, aliquots were removed at the indicated times, diluted to 10 nM into PBS-T (0.05% Tween-20) and analyzed. For reactions containing unlabeled peptides only, prior to flow cytometry aliquots were diluted to 5 nM into PBS-T and incubated with fluorescence labeled antibody 4G8 (Chemicon, Tececula, Calif.) at 1 nM for 1 h at 4° C.
To ensure identical conditions for all measurements, all samples were measured in TruCount Tubes (BD Biosciences) and analysis was stopped after 20,000 beads were counted. Counts were transferred into ANSMS for evaluation (Alzheimer normalized specific measurement signal: event counts from flow cytometry analysis normalized to the size of the particles, i.e. to a mean size of FS Log=250).

[10] = molecular target: T1, human QC; experiment: Long-term Glu1-cyclization of Aβ-derived peptides by recombinant human QC, MALDI-TOF; assay type: biochemical; conditions: pH 5.2 and 6.5
Protocol: For long-term testing of Glu^1-cyclization, Aβ-derived peptides were incubated in 100 μl 0.1 M sodium acetate buffer, pH 5.2 or 0.1 M Bis-Tris buffer, pH 6.5 at 30° C. Peptides were applied in 0.5 mM [Aβ3-11a] or 0.15 mM [Aβ3-21a] concentrations, and 0.2 U QC was added all 24 hours. In case of Aβ3-21a, the assays contained 1% DMSO. At different times, samples were removed from the assay tube, peptides extracted using ZipTips (Millipore) according to the manufacturer's recommendations, mixed with matrix solution (1:1 v/v) and subsequently the mass spectra recorded. Negative controls did either contain no QC or heat deactivated enzyme.
The QC-catalyzed formation of [pGlu^3]Aβ3-11a and [pGlu^3]Aβ3-21a was investigated at pH 5.2 and 6.5, respectively. If the QC-inhibitor benzimidazole was added to the solution before starting the assay by addition of QC, substrate conversion resulting in [pGlu^3]Aβ3-11a or [pGlu^3]Aβ3-21a was suppressed (FIGS. 15E and F). If QC was boiled before addition, formation of the pGlu-peptides was negligible (FIGS. 15A and B).

[11] = test system: THP-1 monocytes; experiment: TransWell chemotaxis assay; assay type: cell-based, human; conditions: supernatant of transfected HEK293 cells
Protocol: The chemotaxis assay was performed using 24 well TransWell plates with a pore size of 5 μm (Corning). Media, containing human MCP-1 variants expressed in HEK293, were used as chemoattractant. To this avail, 600 μl of the culture media of N-terminal human MCP-1 variants was applied directly or in dilutions 1:3, 1:10 and 1:30 in RPMI1640 to the lower chamber of the TransWell plate. Furthermore, undiluted media of HEK293 cells transfected with vector control were applied as negative control to the lower chamber. THP-1 cells were harvested and resuspended in RPMI1640 in a concentration of 1*10^6 cells/100 μl and applied in 100 μl aliquots to the upper chamber. Cells were allowed to migrate towards the chemoattractant for 2 h at 37° C. Subsequently, cells from the upper chamber were discarded and the lower chamber was mixed with 70 mM EDTA in PBS and incubated for 15 min at 37° C. to release cells attached to the membrane. Afterwards, cells migrated to the lower chamber were counted using a cell counter system (Schärfe System). The chemotactic index was calculated by dividing cells migrated to the stimulus from cells migrated to the negative control.

[12] = Thioflavin T assay of fibril formation; assay type: physicochemical
Protocol: The observations for the Aβ42 peptides were substantiated using a common ThT fluorescence assay (FIG. 24-6D). […] The typical lag phase, i.e. the thermodynamically unfavorable period, in which the seeds are generated, is displaced by a hyperbolic initial phase. Thus, there is a much higher tendency to formation of ThT positive initial aggregates.
Fibril formation analysis using Thioflavin T fluorescence was performed essentially as described previously (Chalifour R J, McLaughlin R W, Lavoie L, Morissette C, Tremblay N, Boule M, Sarazin P, Stea D, Lacombe D, Tremblay P, Gervais F 2003 Stereoselective interactions of peptide inhibitors with the beta-amyloid peptide. J Biol Chem 278:34874-34881). The DMSO stock solution was diluted in PBS to a final concentration of 50 μM of Aβ peptide. The peptide solution was added to an equal volume of ThT solution (20 μM ThT, 0.3 M NaCl, 0.01% NaN3) and applied to a 96-well microplate. Routinely, assays of each peptide were performed in triplicate on one plate. The plate was covered with an adhesive film (EXCEL Scientific, Wrightwood, Calif., USA) and incubated in the plate reader at 30° C. for up to 250 h. The fluorescence was measured every 4 h (excitation 440 nm, emission […]).

Fc1ccc(NC(=S)NCCCn2ccnc2)cc1
melting point: 147 to 148 °C

c1cnc2c(c1)ccc1cccnc12 [1,10-phenanthroline]
formation of [pGlu^3]Aβ3-11a from [Gln^3]Aβ1-11a, consecutive catalysis by DP IV and QC [1]: not formed
formation of [pGlu^3]Aβ3-11a from [Gln^3]Aβ3-11a ([1]; porcine pituitary homogenate): inhibited
inactivation of human QC [2]: almost completely inactivated
inhibition of mammalian QC [3]: Inhibition
inhibition of human QC [4]: inhibited

NC(=O)CC[C@H](N)C(=O)Nc1ccc2ccccc2c1 [H-Gln-βNA]
pKa [5]: 7.16 ± 0.01
first-order rate constant of nonenzymatic pGlu-formation [6]: 1.2*10^−7 s^−1

N[C@@H](CCC(=O)O)C(=O)Nc1ccc2ccccc2c1 [H-Glu-βNA]
conversion by human QC [7]: None of these compounds were converted
first-order rate constant of nonenzymatic pGlu-formation [6]: ≤ 1.0*10^−9 s^−1

CC(C)[C@H](N)C(=O)N1CCCC1 [Val-Pyrr, Val-Pyrrolidide]
DPIV-catalysed formation of [Gln^3]Aβ3-11a from [Gln^3]Aβ1-11a [8]: completely prevented
formation of [pGlu^3]Aβ3-11a from [Gln^3]Aβ1-11a, consecutive catalysis by DP IV and QC [1]: not formed

O=S(=O)([O-])[O-].[Zn+2] [ZnSO4]
restoration of QC activity after inactivation ([2]; 0.5 mM metal ion, 0.5 mM EDTA): Near-total restoration

O=C(O)c1cccc(C(=O)O)n1 [dipicolinic acid]
inactivation of human QC [2]: almost completely inactivated
inhibition of human QC [4]: inhibited

Aβ(1-42): SEQ ID NO: 20
fibril formation [9]: Only very little fibril formation

EFRHDSGYEVHHQKLVFFA-NH2 [Aβ3-21a]
glutamate-containing peptide as QC-substrate [10]: can also serve as QC-substrates

MCP-1 (WT): human MCP-1(1-76) expressed in HEK293 cells
chemotaxis of THP-1 cells [11]: chemotactic response

pGlu-Aβ(3-40): N-terminally pyroglutamate-modified Aβ(3-40)
aggregation, ThT fluorescence [12]: much faster aggregation compared to the non-cyclized counterpart
